Some test systems named below: SK-MEL-28 melanoma; SW-620 colon; NCI/ADR-RES ovarian; HCT-15 colon; SF-539 CNS; OVCAR-3 ovarian; CAKI-1 renal; MDA-MB-231 breast; MDA-N; NCI-H522 lung.
Experiment in all cases: NCI tumour cell line growth inhibition, 48 h

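A five-concentration, 48-hour dose response in 96-well plates underlies each endpoint, interpolated linearly between surrounding concentrations. The concentration for full growth arrest is given as TGI.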

With `CC(=O)NNc1nc(C)c(C(/C=C/c2ccc([N+](=O)[O-])cc2)=N/NC(N)=S)s1`, the TGI in the test with SK-MEL-28 melanoma, with SW-620 colon, in the test with NCI/ADR-RES ovarian, in the test with HCT-15 colon, in the test with SF-539 CNS and in the test on OVCAR-3 ovarian was over 100 µM each time. Also, the TGI with CAKI-1 renal, with MDA-MB-231 breast, with MDA-N and with NCI-H522 lung was over 100 µM each time.
`Cc1ccc2c(c1)C(=O)N1CCC[C@H]1C=N2`: the TGI is 52 µM in the test on SK-MEL-28 melanoma; over 83.7 µM with SW-620 colon; over 64 µM in the test on NCI/ADR-RES ovarian; over 76.4 µM in the test with HCT-15 colon; 37.3 µM with SF-539 CNS; over 67.2 µM in the test on OVCAR-3 ovarian. The TGI is over 71.7 µM in the test with CAKI-1 renal, over 66.5 µM in the test on MDA-MB-231 breast, 37.6 µM with MDA-N and 22.5 µM in the test with NCI-H522 lung.
For the compound `CC(C)OP(=O)(OC(C)C)/C(C#N)=C/c1ccco1`, the TGI with SK-MEL-28 melanoma, in the test with SW-620 colon, with NCI/ADR-RES ovarian, with HCT-15 colon, in the test on SF-539 CNS and with OVCAR-3 ovarian was over 100 µM in each case. Further, the TGI with CAKI-1 renal, in the test with MDA-MB-231 breast, in the test with MDA-N and with NCI-H522 lung was over 100 µM throughout.
Take `O=C(O)CNc1ccc(C(=O)O)cc1`: the TGI with SK-MEL-28 melanoma, with SW-620 colon, in the test with NCI/ADR-RES ovarian, with HCT-15 colon, in the test on SF-539 CNS and in the test with OVCAR-3 ovarian was over 100 µM throughout. The TGI with CAKI-1 renal, in the test on MDA-MB-231 breast, in the test with MDA-N and with NCI-H522 lung was over 100 µM throughout.
`CCOC(=O)C(C(=O)c1ccccc1C(=O)OC)=P(c1ccccc1)(c1ccccc1)c1ccccc1`: the TGI in the test with SK-MEL-28 melanoma, with SW-620 colon, in the test with NCI/ADR-RES ovarian, in the test with HCT-15 colon, in the test on SF-539 CNS and in the test on OVCAR-3 ovarian was over 10 µM throughout. Also, the TGI in the test on CAKI-1 renal, with MDA-MB-231 breast, in the test on MDA-N and in the test on NCI-H522 lung was over 10 µM in each case.
With `Cc1cc(-c2nc3ccccc3s2)ccc1N`, the TGI in the test on SK-MEL-28 melanoma was over 100 µM; in the test with SW-620 colon, over 100 µM; in the test with NCI/ADR-RES ovarian it was over 87.6 µM; in the test on HCT-15 colon it was over 89.3 µM; with SF-539 CNS, over 91.6 µM; in the test on OVCAR-3 ovarian, over 86.6 µM. For the same compound, the TGI with CAKI-1 renal is over 82.4 µM; in the test with MDA-MB-231 breast, over 88.2 µM; in the test with MDA-N, over 83.6 µM; with NCI-H522 lung, over 61.6 µM.
On to `COC(=O)C1c2c(c3ccccc3n2C(=O)OC)CCN2CCC1C(S(=O)(=O)c1ccccc1)C2=O` (stereo not given), for which the TGI with SK-MEL-28 melanoma, in the test with SW-620 colon, with NCI/ADR-RES ovarian, in the test on HCT-15 colon, in the test with SF-539 CNS and in the test with OVCAR-3 ovarian was over 100 µM in each case. Also, the TGI with CAKI-1 renal, with MDA-MB-231 breast, in the test on MDA-N and with NCI-H522 lung was over 100 µM in each case.
Turning to `O=C1N2CCc3c([nH]c4ccccc34)C23CC2CCCCC12S3` (stereo not given), the TGI in the test with SK-MEL-28 melanoma, in the test with SW-620 colon, in the test with NCI/ADR-RES ovarian, in the test on HCT-15 colon, with SF-539 CNS and in the test on OVCAR-3 ovarian was over 100 µM in each case. For the same compound, the TGI with CAKI-1 renal, in the test on MDA-MB-231 breast, in the test with MDA-N and with NCI-H522 lung was over 100 µM throughout.

(Values after PubChem BioAssay (NCI).)
